Experimental data from patent US20130210823A1, “METHODS FOR C[…]” (SYNGENTA PARTICIPATIONS AG, priority 2010, published 2013).

Test system: Varroa destructor
Experiment: Varroa mite contact test on Potter-tower treated Petri dishes
Assay type: in vivo
Conditions: adult V. destructor, contact with spray deposit, concentration of formulation 1 × 10^−−4 g, assessed after 72 h
From the text: Varroa mites came from bee colonies provided by a beekeeper. The mite population is kept in a dedicated apiary. For screening needs adults are collected on the same day as the beginning of experiment, either in beehive cells containing brood of worker bees or drones, or directly on bees emerging during collection.
Bee nymphs needed to feed adults of Varroa mites during experiments are choosen within the frames from which Varroa is also collected. They are collected at the stage of nymph with white or pink coloured eyes according methology described by Rembold et Kremer (Characterization of postembryonic developmental stages of the female castes of the honey bee, Apis mellifera L. Apidologie 11: 29-38).
3 cm diameter Petri dishes were used as confinement material of Varroa mites during experiments. Covers with wire mesh were put on the top of each Petri dish in order to avoid the mites to run away but also to keep favorable humidity for the bee nymph. […]
After treatment of Petri dishes, five (5) adults of V. destructor collected from the brood were placed in the petri dish. […] During a test 20 Varroa adults are tested for a given compound (4 dishes of 5 individuals).Mortality levels are assessed after 72 h (mites which are able to move their legs are considered as alive). […]

## CC1=NNC(=O)N(N=Cc2cccnc2)C1 [pymetrozine, 2,3,4,5-tetrahydro-3-oxo-4-[(pyridin-3-yl)methyleneamino]-6-methyl-1,2,4-triazine]
  % mortality of Varroa: 90%
